Data reported in patent US9150577B2, “Heterocyclic compounds containing an indole core” (Boehringer Ingelheim International GmbH, priority 2009, dated 2015).

Biological target: Human RSK2 (Homo sapiens (Human), UniProt P51812)
Assay: Human RSK2 assay (Kinase Glo Plus, residual ATP);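 also: recombinant human RSK2 phosphorylating a substrate peptide, 90 min at 28 °C, leftover ATP read by luminescence, RLU scaled between no-kinase background and uninhibited kinase controls, 4-parameter fit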
Format: biochemical

Chain of Human RSK2 (P51812 whole entry): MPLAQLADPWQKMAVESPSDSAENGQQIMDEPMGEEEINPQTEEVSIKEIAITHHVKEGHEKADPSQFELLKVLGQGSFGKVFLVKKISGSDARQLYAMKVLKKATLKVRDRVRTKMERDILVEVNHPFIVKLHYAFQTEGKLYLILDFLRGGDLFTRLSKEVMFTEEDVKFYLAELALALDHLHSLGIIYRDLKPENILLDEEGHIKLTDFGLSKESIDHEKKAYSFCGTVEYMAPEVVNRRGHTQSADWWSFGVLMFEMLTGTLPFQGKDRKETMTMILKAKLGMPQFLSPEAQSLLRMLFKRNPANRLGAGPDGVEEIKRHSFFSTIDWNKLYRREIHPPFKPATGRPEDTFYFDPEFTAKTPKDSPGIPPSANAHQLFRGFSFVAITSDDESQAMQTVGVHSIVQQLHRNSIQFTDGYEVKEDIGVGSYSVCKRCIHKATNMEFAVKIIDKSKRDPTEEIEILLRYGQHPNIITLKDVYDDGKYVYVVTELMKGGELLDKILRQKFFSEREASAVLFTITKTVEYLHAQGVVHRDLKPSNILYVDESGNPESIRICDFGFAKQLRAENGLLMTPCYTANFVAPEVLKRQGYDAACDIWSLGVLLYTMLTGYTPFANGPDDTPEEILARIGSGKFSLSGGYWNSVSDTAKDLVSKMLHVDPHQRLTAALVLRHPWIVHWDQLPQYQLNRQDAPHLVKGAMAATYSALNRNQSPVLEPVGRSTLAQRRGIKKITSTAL

SMILES | IC50 [nM]
C[C@H]1NC(=O)c2cc3ccc(C(=O)Nc4cnn(Cc5ccccc5)c4)cc3n2[C@H]1C [Example 142, (3R,4S)-N-(1-benzyl-1H-pyrazol-4-yl)-3,4-dimethyl-1-oxo-1,2,3,4-tetrahydropyrazino[1,2-a]indole-7-carboxamide] | 65.5
C[C@@H]1CCNC(=O)c2cc3ccc(C(=O)Nc4cnn(Cc5ccccc5)c4)cc3n21 [Example 143, (5R)-N-(1-benzyl-1H-pyrazol-4-yl)-5-methyl-1-oxo-2,3,4,5-tetrahydro-1H-[1,4]diazepino[1,2-a]indole-8-carboxamide] | 0.71
C[C@H]1CCNC(=O)c2cc3ccc(C(=O)Nc4cnn(Cc5ccccc5)c4)cc3n21 [Example 144, (5S)-N-(1-benzyl-1H-pyrazol-4-yl)-5-methyl-1-oxo-2,3,4,5-tetrahydro-1H-[1,4]diazepino[1,2-a]indole-8-carboxamide] | 80
CC(C)c1cccc(NC(=O)c2ccc3cc4n(c3c2)CCCNC4=O)c1 [Example 145, 1-oxo-N-[3-(propan-2-yl)phenyl]-2,3,4,5-tetrahydro-1H-[1,4]diazepino[1,2-a]indole-8-carboxamide] | 140
CC(C)c1ccc(NC(=O)c2ccc3cc4n(c3c2)CCCNC4=O)cc1 [Example 146, 1-oxo-N-[4-(propan-2-yl)phenyl]-2,3,4,5-tetrahydro-1H-[1,4]diazepino[1,2-a]indole-8-carboxamide] | 89
COc1ccccc1NC(=O)c1ccc2cc3n(c2c1)CCCNC3=O [Example 147, N-(2-methoxyphenyl)-1-oxo-2,3,4,5-tetrahydro-1H-[1,4]diazepino[1,2-a]indole-8-carboxamide] | 400
COc1cccc(NC(=O)c2ccc3cc4n(c3c2)CCCNC4=O)c1 [Example 148, N-(3-methoxyphenyl)-1-oxo-2,3,4,5-tetrahydro-1H-[1,4]diazepino[1,2-a]indole-8-carboxamide] | 190
COc1ccc(NC(=O)c2ccc3cc4n(c3c2)CCCNC4=O)cc1 [Example 149, N-(4-methoxyphenyl)-1-oxo-2,3,4,5-tetrahydro-1H-[1,4]diazepino[1,2-a]indole-8-carboxamide] | 110
O=C(Nc1cccnc1)c1ccc2cc3n(c2c1)CC(F)(F)CNC3=O [Example 152, 4,4-difluoro-1-oxo-N-(pyridin-3-yl)-2,3,4,5-tetrahydro-1H-[1,4]diazepino[1,2-a]indole-8-carboxamide] | 1700
O=C(Nc1cccnc1)c1ccc2cc3n(c2c1)CC1(CCC1)CNC3=O [Example 153, 1′-oxo-N-(pyridin-3-yl)-2′,3′-dihydro-1′H-spiro[cyclobutane-1,4′-[1,4]diazepino[1,2-a]indole]-8′-carboxamide] | 3300
O=C(Nc1ccccn1)c1ccc2cc3n(c2c1)CCCNC3=O [Example 154, 1-oxo-N-(pyridin-2-yl)-2,3,4,5-tetrahydro-1H-[1,4]diazepino[1,2-a]indole-8-carboxamide] | 220
C[C@H]1CNC(=O)c2cc3ccc(C(=O)Nc4cccnc4)cc3n21 [Example 155, (4S)-4-methyl-1-oxo-N-(pyridin-3-yl)-1,2,3,4-tetrahydropyrazino[1,2-a]indole-7-carboxamide] | 2300
O=C(Nc1ccncc1)c1ccc2cc3n(c2c1)CCCNC3=O [Example 156, 1-oxo-N-(pyridin-4-yl)-2,3,4,5-tetrahydro-1H-[1,4]diazepino[1,2-a]indole-8-carboxamide] | 39
Cc1cc(NC(=O)c2ccc3cc4n(c3c2)CC(C)(C)CNC4=O)no1 [Example 157, 4,4-dimethyl-N-(5-methyl-1,2-oxazol-3-yl)-1-oxo-2,3,4,5-tetrahydro-1H-[1,4]diazepino[1,2-a]indole-8-carboxamide] | 1800
Cc1cc(NC(=O)c2ccc3cc4n(c3c2)C(C)CCNC4=O)no1 (centres unmarked) [Example 159, 5-methyl-N-(5-methyl-1,2-oxazol-3-yl)-1-oxo-2,3,4,5-tetrahydro-1H-[1,4]diazepino[1,2-a]indole-8-carboxamide] | 12
CC1CCNC(=O)c2cc3ccc(C(=O)Nc4cc(C(C)(C)C)on4)cc3n21 (centres unmarked) [Example 160, N-(5-tert-butyl-1,2-oxazol-3-yl)-5-methyl-1-oxo-2,3,4,5-tetrahydro-1H-[1,4]diazepino[1,2-a]indole-8-carboxamide] | 32
CC(C)n1ncc2cc(NC(=O)c3ccc4cc5n(c4c3)C(C)CCNC5=O)cnc21 (centres unmarked) [Example 162, 5-methyl-1-oxo-N-[1-(propan-2-yl)-1H-pyrazolo[3,4-b]pyridin-5-yl]-2,3,4,5-tetrahydro-1H-[1,4]diazepino[1,2-a]indole-8-carboxamide] | 19
Cn1cc(NC(=O)c2ccc3cc4n(c3c2)CC(C)(C)CNC4=O)cn1 [Example 163, 4,4-dimethyl-N-(1-methyl-1H-pyrazol-4-yl)-1-oxo-2,3,4,5-tetrahydro-1H-[1,4]diazepino[1,2-a]indole-8-carboxamide] | 335
CC1CCNC(=O)c2cc3ccc(C(=O)Nc4cnn(C)c4)cc3n21 (centres unmarked) [Example 164, 5-methyl-N-(1-methyl-1H-pyrazol-4-yl)-1-oxo-2,3,4,5-tetrahydro-1H-[1,4]diazepino[1,2-a]indole-8-carboxamide] | 10
CC(C)n1c(NC(=O)c2ccc3cc4n(c3c2)C(C)CCNC4=O)nc2ccccc21 (centres unmarked) [Example 165, 5-methyl-1-oxo-N-[1-(propan-2-yl)-1H-benzimidazol-2-yl]-2,3,4,5-tetrahydro-1H-[1,4]diazepino[1,2-a]indole-8-carboxamide] | 1.8
CCn1c(NC(=O)c2ccc3cc4n(c3c2)C(C)CCNC4=O)nc2ccccc21 (centres unmarked) [Example 166, N-(1-ethyl-1H-benzimidazol-2-yl)-5-methyl-1-oxo-2,3,4,5-tetrahydro-1H-[1,4]diazepino[1,2-a]indole-8-carboxamide] | 0.6
Cc1cc(NC(=O)c2ccc3cc4n(c3c2)CC(F)(F)CNC4=O)no1 [Example 167, 4,4-difluoro-N-(5-methyl-1,2-oxazol-3-yl)-1-oxo-2,3,4,5-tetrahydro-1H-[1,4]diazepino[1,2-a]indole-8-carboxamide] | 670
Cc1cc(NC(=O)c2ccc3cc4n(c3c2)CC2(CCC2)CNC4=O)no1 [Example 170, N-(5-methyl-1,2-oxazol-3-yl)-1′-oxo-2′,3′-dihydro-1′H-spiro[cyclobutane-1,4′-[1,4]diazepino[1,2-a]indole]-8′-carboxamide] | 1300
Cc1cc(NC(=O)c2ccc3cc4n(c3c2)[C@H](C)[C@H](C)NC4=O)no1 [Example 171, (3S,4R)-3,4-dimethyl-N-(5-methyl-1,2-oxazol-3-yl)-1-oxo-1,2,3,4-tetrahydropyrazino[1,2-a]indole-7-carboxamide] | 4
Cc1cc(NC(=O)c2ccc3cc4n(c3c2)[C@@H](C)[C@@H](C)NC4=O)no1 [Example 172, (3R,4S)-3,4-dimethyl-N-(5-methyl-1,2-oxazol-3-yl)-1-oxo-1,2,3,4-tetrahydropyrazino[1,2-a]indole-7-carboxamide] | 1100
Cc1cc(NC(=O)c2ccc3cc4n(c3c2)[C@@H](C)CCNC4=O)no1 [Example 173, (5S)-5-methyl-N-(5-methyl-1,2-oxazol-3-yl)-1-oxo-2,3,4,5-tetrahydro-1H-[1,4]diazepino[1,2-a]indole-8-carboxamide] | 1200
